US20250161308A1, “Methods of Treating Covid-Related Disorders” (priority 2022, published 2025)
Read-outs that look alike come from different tables or passages of the source.

How the values were obtained:
[1] = system: patient in need of treatment for long COVID; assay: Treating long COVID (Example 1), clinical screening assessments; assay type: in vivo, human; details: patients with long COVID
Method: A Compound of Formula (I), such as Compound 2a or Compound 1a, or a pharmaceutically acceptable salt thereof, is administered orally to a patient in need of treatment for long COVID.
In some embodiments, a patient in need of treatment for long COVID is assessed with ADCS-ADL23. The ADCS-ADL23 (Galasko, 1997) is a 23-item assessment of functional impairment in terms of activities of daily living administered to the support person/caregiver. It comprises 23 questions about the subject's involvement and level of performance across items representing daily living. The questions range from basic to instrumental activities of daily living. Each item is rated from the highest level of independent performance to complete loss. The total score range is from 0 to 78, with lower scores indicating greater functional impairment.
A patient in need of treatment for long COVID is assessed with ERP P300. ERP P300 is a quantitative, unbiased, non-invasive method of recording task-related brain processing speed, elicited by external stimuli, e.g., an oddball auditory stimulus, and is a well-established functional biomarker, particularly of working memory access (Ally, 2006). ERP P300 is characterized by a stereotyped series of voltage deflections occurring after the respective odd tone to be counted, with early features (<100 msec) corresponding to unconscious sensory transmission (auditory cortex, N100), and later features produced by cognitive processing in the ventral attentional network, i.e., P300, referring to the large positive deflection at roughly 300 msec in healthy adults (young or elderly). The P300 latency is sensitive to detecting reduced synaptic transmission related to cognitive decline in AD patients and other dementias (Olichney, 2011).

[2] = system: Rat primary cortical neuron cultures; assay type: cell-based; details: for Significance of neuroprotection vs 1 uM LPS: 24 h LPS
Rat hippocampal neurons [3] = assay: Neurite outgrowth assay; assay type: cell-based; details: for Significant increase in: Neurite length: Table 4 study
Rat hippocampal neurons [4] = assay: Synaptogenesis assay; assay type: cell-based; details: for Significant increase in: Synapses: Table 4 study
[5] = system: LPS-induced cognitive deficit in CD-1 mice; assay: Rodent LPS model of brain inflammation, T-maze spontaneous alternation; assay type: in vivo, mouse; details: for Recovery (%) / Spontaneous alternation (%) Mean: LPS 250 μg/kg
[6] = system: THP1-differentiated macrophages; assay type: cell-based, human; design: key to Significant reduction in IL-6 / Significant reduction in TNF-α / Significant reduction in IL-1β: NS: indicates a non-significant reduction in the indicated cytokine; +: indicates a p value<0.05 in Tukey post test; ++: indicates a p value<0.01 in Tukey post test; details: for Significant reduction in IL-1β / Significant reduction in IL-6 / Significant reduction in TNF-α: 24 hrs LPS
[7] = system: bleomycin-induced pulmonary fibrosis in C57BL/6 mice; assay: Bleomycin-induced pulmonary fibrosis; assay type: in vivo, mouse; details: for TGF-Beta, improvement versus disease control / Collagen, improvement versus disease control / Hydroxyproline, improvement versus disease control: right lung homogenate
[8] = system: pulmonary LPS-stimulated rats; assay: Immune cell infiltration in BALF, LPS acute pulmonary inflammation; assay type: in vivo, rat
[9] = system: pulmonary LPS-stimulated rats; assay: Cytokine expression in BALF supernatant (multiplex immunoassay), LPS acute pulmonary inflammation; assay type: in vivo, rat; details: any dose, p<0.05 vs LPS-only animals
[10] = system: chemically-induced spatial memory deficits in rats; assay: Scopolamine-induced spatial memory deficit, Morris water maze (2 mg/kg scopolamine, 5 days); assay type: in vivo, rat
Method: Exemplary compound 1a was evaluated for its ability to reverse chemically-induced spatial memory deficits in rats in the Morris water maze. The water maze consists of a large round tank (diameter 1.5 m) filled with 23-26° C. water to a depth of ˜30 cm and the water was clouded with white paint. A round platform was fixed such that it rested 2-3 cm below the surface of the water. High-contrast visual cues were placed around the tank to aid spatial orientation of test animals. Testing consisted of placing an animal into the water facing the tank wall at one of three randomly assigned starting locations and allowing the animal to swim and search for the hidden platform for up to 90 seconds. The time taken for the animal to locate the platform was recorded as the escape latency. Animals were tested 5 times per day with a 30 second rest period between trials. Testing was completed for a total of 5 consecutive days.
Animals were divided into groups (N=12 per group) depending on treatment. Control animals received only empty vehicle. Scopolamine groups received 2 mg/kg scopolamine dissolved in sterile saline by intraperitoneal (IP) injection 30 minutes prior to testing. Test compound groups received test compound at various concentrations by oral gavage (PO) dissolved in 78% sterile saline, 20% polyethylene glycol (PEG-400), and 2% DMSO 40 minutes prior to testing. Escape latencies were recorded for each animal for 5 trials each day for 5 consecutive days. Changes in escape latency curves were statistically analyzed by 2-way ANOVA with Bonferoni post-test.

CCC(C)CN1CC2N(C(=O)c3ccc(C(F)(F)F)cc3)CCC(=O)N2[C@@H](C)C1=O (stereo partly drawn) [Compound 1a]
patient outcome as measured by one or more of the screening assessments [1]: reduces the rate of decline, stabilizes, or improves patient outcome
safety and tolerability [1]: acceptable safety and tolerability
Significance of neuroprotection vs 1 uM LPS ([2]; 0.1 nM): +++ (+++ indicates p<0.001)
Significance of neuroprotection vs 1 uM LPS ([2]; 1 nM): +++ (+++ indicates p<0.001)
Significance of neuroprotection vs 1 uM LPS ([2]; 10 nM): +++ (+++ indicates p<0.001)
Significance of neuroprotection vs 1 uM LPS ([2]; 100 nM): +++ (+++ indicates p<0.001)
Significance of neuroprotection vs 1 uM LPS ([2]; 1 μM): +++ (+++ indicates p<0.001)
protection of primary neurons from LPS-stimulated inflammatory toxicity ([2]; at at least one dose tested): protected primary neurons from LPS-stimulated inflammatory toxicity
neurite length / extension of neurites (in words) (Rat hippocampal neurons [3]): increase both measures at all doses tested
Significant increase in: Neurite length (Rat hippocampal neurons [3]; 1 nM): ++++ (++++ = p < 0.0001)
Significant increase in: Neurite length (Rat hippocampal neurons [3]; 10 nM): ++++ (++++ = p < 0.0001)
Significant increase in: Neurite length (Rat hippocampal neurons [3]; 100 nM): + (+ = p < 0.05)
synapse counts (in words) (Rat hippocampal neurons [4]): increase both measures at all doses tested
Significant increase in: Synapses (Rat hippocampal neurons [4]; 1 nM): ++++ (++++ = p < 0.0001)
Significant increase in: Synapses (Rat hippocampal neurons [4]; 10 nM): ++++ (++++ = p < 0.0001)
Significant increase in: Synapses (Rat hippocampal neurons [4]; 100 nM): ++++ (++++ = p < 0.0001)
Recovery (%) ([5]; 0.5 mg/kg p.o. 14 days): 17%
Spontaneous alternation (%) Mean ([5]; 0.5 mg/kg p.o. 14 days): 49%
Spontaneous alternation (%) Mean ([5]; 0.5 mg/kg p.o. 14 days, listed as Cmpd la): 48.6%
Recovery (%) ([5]; 2 mg/kg p.o. 14 days): 56%
Spontaneous alternation (%) Mean ([5]; 2 mg/kg p.o. 14 days): 59%
Spontaneous alternation (%) Mean ([5]; 2 mg/kg p.o. 14 days, listed as Cmpd la): 58.6%
Recovery (%) ([5]; 8 mg/kg p.o. 14 days): 47%
Spontaneous alternation (%) Mean ([5]; 8 mg/kg p.o. 14 days): 56%
Spontaneous alternation (%) Mean ([5]; 8 mg/kg p.o. 14 days, listed as Cmpd la): 56.4%
Recovery (%) ([5]; 16 mg/kg p.o. 14 days): 28%
Spontaneous alternation (%) Mean ([5]; 16 mg/kg p.o. 14 days): 51%
Spontaneous alternation (%) Mean ([5]; 16 mg/kg p.o. 14 days, listed as Cmpd la): 51.4%
Recovery (%) ([5]; 32 mg/kg p.o. 14 days): 44%
Spontaneous alternation (%) Mean ([5]; 32 mg/kg p.o. 14 days): 56%
Spontaneous alternation (%) Mean ([5]; 32 mg/kg p.o. 14 days, listed as Cmpd la): 55.7%
significance of reversal of LPS-induced cognitive deficit (in words) ([5]; T-maze): significant reversal of LPS-induced cognitive deficits at 2 mg/kg
Significant reduction in IL-1β ([6]; 0.1 nM): ++ (indicates a p value<0.01 in Tukey post test)
Significant reduction in IL-6 ([6]; 0.1 nM): NS
Significant reduction in TNF-α ([6]; 0.1 nM): ++ (indicates a p value<0.01 in Tukey post test)
Significant reduction in IL-1β ([6]; 10 nM): ++ (indicates a p value<0.01 in Tukey post test)
Significant reduction in IL-6 ([6]; 10 nM): ++ (indicates a p value<0.01 in Tukey post test)
Significant reduction in TNF-α ([6]; 10 nM): ++ (indicates a p value<0.01 in Tukey post test)
Significant reduction in IL-1β ([6]; 1000 nM): ++ (indicates a p value<0.01 in Tukey post test)
Significant reduction in IL-6 ([6]; 1000 nM): + (indicates a p value<0.05 in Tukey post test)
Significant reduction in TNF-α ([6]; 1000 nM): ++ (indicates a p value<0.01 in Tukey post test)
expression of IL-1β (in words) ([6]; at at least one tested dose): significantly reduced the expression of IL-1β and TNF-α
expression of IL-6 (in words) ([6]; at at least one tested dose): significantly reduced the expression of IL-6
expression of TNF-α (in words) ([6]; at at least one tested dose): significantly reduced the expression of IL-1β and TNF-α
TGF-Beta, improvement versus disease control ([7]; 0.2 mg/kg po QD): +++ (+++ => 51-100% improvement v disease control)
weight loss compared to the other treatment groups ([7]; 0.8 mg/kg): slightly greater weight loss
Right Lung Weight, improvement versus disease control ([7]; 0.8 mg/kg po QD, day 21): + (+ => 5-25% improvement v disease control)
Collagen, improvement versus disease control ([7]; 0.8 mg/kg po QD): + (+ => 5-25% improvement v disease control)
TGF-Beta, improvement versus disease control ([7]; 0.8 mg/kg po QD): +++ (+++ => 51-100% improvement v disease control)
collagen in right lung homogenate versus pirfenidone (in words) ([7]; 2 mg/kg): about the same levels of collagen
Right Lung Weight, improvement versus disease control ([7]; 2 mg/kg po QD, day 21): + (+ => 5-25% improvement v disease control)
Collagen, improvement versus disease control ([7]; 2 mg/kg po QD): ++ (++ => 26-50% improvement v disease control)
Hydroxyproline, improvement versus disease control ([7]; 2 mg/kg po QD): ++ (++ => 26-50% improvement v disease control)
TGF-Beta, improvement versus disease control ([7]; 2 mg/kg po QD): +++ (+++ => 51-100% improvement v disease control)
collagen concentration in right lung homogenates (in words) ([7]; 8 mg/kg): reduced compared to the pirfenidone positive control
hydroxyproline concentration in right lung homogenates (in words) ([7]; 8 mg/kg and 2 mg/kg): lower concentrations of hydroxyproline
Right Lung Weight, improvement versus disease control ([7]; 8 mg/kg po QD, day 21): ++ (++ => 26-50% improvement v disease control)
Hydroxyproline, improvement versus disease control ([7]; 8 mg/kg po QD): + (+ => 5-25% improvement v disease control)
TGF-Beta, improvement versus disease control ([7]; 8 mg/kg po QD): + (+ => 5-25% improvement v disease control)
protection against bleomycin-induced increases in TGF-β (in words) ([7]; all doses, day 21): significantly protected against bleomycin-induced increases in TGF-β
protection against body weight loss (in words) ([7]; all treatment groups): did not protect against body weight loss
activity in treating pulmonary fibrosis in the model ([7]; mouse, in vivo): active in treating pulmonary fibrosis
Neutrophils in BALF, reduction vs disease control ([8]; 0.0075 mg/kg IV): ++ (++ = >25% reduction in cell count vs disease control)
Total Leukocytes in BALF, reduction vs disease control ([8]; 0.0075 mg/kg IV): ++ (++ = >25% reduction in cell count vs disease control)
Neutrophils in BALF, reduction vs disease control ([8]; 0.075 mg/kg IV): + (+ = >5% reduction in cell count vs disease control)
Total Leukocytes in BALF, reduction vs disease control ([8]; 0.075 mg/kg IV): + (+ = >5% reduction in cell count vs disease control)
neutrophil counts compared to LPS-only controls (in words) ([8]; rat, in vivo): reduced both total leukocyte counts and neutrophil counts
total leukocyte counts compared to LPS-only controls (in words) ([8]; rat, in vivo): reduced both total leukocyte counts and neutrophil counts
cytokines with significant changes in expression in BALF supernatant (list) [9]: G-CSF, CXCL2, CXCL10, IFN-γ, and IL-1β
Cognitive Improvement ([10]; 0.5 mg/kg PO): + (+ indicates post-test p-value between 0.06 and 0.05)
Cognitive Improvement ([10]; 2 mg/kg PO): − (− indicates post-test p-value above 0.06)
Cognitive Improvement ([10]; 8 mg/kg PO): − (− indicates post-test p-value above 0.06)
